What was measured:
[1] = system: osteoblasts derived from trabecular bone; conditions: cited from earlier work
[2] = binding and release of antimicrobial silver on Ti, PCL and PEEK (previous in house work); format: physicochemical
[3] = Palacos cement; cited from earlier work
[4] = Palacos cement; cited from earlier work; remark: listed apart in the source

Row | Molecule | low levels with no or little effect on the replication of osteoblasts [1] [µg/mL] | elution from cement at low doses [3] | effects at high concentrations [4] | other results
1 | NC[C@H]1O[C@H](O[C@H]2[C@H](O)[C@@H](O[C@H]3O[C@H](CO)[C@@H](O)[C@H](N)[C@H]3O)[C@H](N)C[C@@H]2N)[C@H](N)C[C@@H]1O [Tobramycin, tobramycin] | < 200 | – | – | higher concentrations at which replication decreases and eventually cell death occurs [1]: > 400 µg/mL
2 | [Ag] [antimicrobial silver, silver] | – | – | – | time of release above MIC [2]: 40 days; released level (above MIC) ([2]; for 40 days): above 1 ug/mL
3 | CN[C@H](CC(C)C)C(=O)N[C@H]1C(=O)N[C@@H](CC(N)=O)C(=O)N[C@H]2C(=O)N[C@H]3C(=O)N[C@H](C(=O)N[C@H](C(=O)O)c4cc(O)cc(O)c4-c4cc3ccc4O)[C@H](O)c3ccc(c(Cl)c3)Oc3cc2cc(c3O[C@@H]2O[C@H](CO)[C@@H](O)[C@H](O)[C@H]2O[C@H]2C[C@](C)(N)[C@H](O)[C@H](C)O2)Oc2ccc(cc2Cl)[C@H]1O [vancomycin] | < 1 | – | – | high concentrations at which cell death of osteoblasts occurs [1]: 10,000 /mL
4 | gentamicin | – | very little elution occurs | local cytotoxic effects | levels impeding 3H-thymidine levels [1]: > 100 mL⁻¹
5 | teicoplanin | – | very little elution occurs | local cytotoxic effects | –
